The results in this text go back to ChEMBL document CHEMBL1201862, “PubChem BioAssay data set” (2004).

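96-well plates; 48 h exposure; 5 concentrations. Endpoints by linear interpolation between flanking doses. Not reached: highest tested concentration assigned. Here, GI50 denotes the concentration required for 50% inhibition of growth.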 Active and inactive are the calls of the source. Cut-off read from the data, not from the text of the source: active = GI50 up to about 1.1 µM and inactive = higher.

Among the test systems are CCRF-CEM; UACC-257; LOX IMVI; NCI-H226; SR; IGROV-1; OVCAR-5; HCT-116; SW-620; SK-MEL-5; 786-0; NCI-H460; SNB-75; K562; RXF 393; MOLT-4; SNB-19; M14; MDA-MB-231.
Test in all cases: DTP human tumour cell line panel, 48 h

Turning to `Cn1cc2ccccc2c1-c1nc(F)nc(Oc2ccc3c(c2)CC[C@@H]2C3CC[C@@]3(C)C2CC[C@@H]3O)n1` (stereo not given in full), the GI50 (commonly the concentration giving 50% growth inhibition) with CCRF-CEM was 3.08 µM (inactive); with UACC-257 it was 21.3 µM (inactive); in the assay on LOX IMVI, 5.79 µM (inactive); with NCI-H226, 13.5 µM (inactive); in the assay on SR, 3.36 µM (inactive); in the assay with IGROV-1, 6.78 µM (inactive). In addition, the GI50 in the assay with OVCAR-5 was 18.6 µM (inactive); in the assay with HCT-116 it was 11.7 µM (inactive); in the assay on SW-620, 7.35 µM (inactive); with SK-MEL-5 it was 12.8 µM (inactive); with 786-0, 8.91 µM (inactive); in the assay on NCI-H460 it was 18.6 µM (inactive). In addition, the GI50 with SNB-75 is 16.7 µM (inactive); in the assay with K562, 4.73 µM (inactive); in the assay with RXF 393, 3.08 µM (inactive); with MOLT-4 it was 4.07 µM (inactive); in the assay with SNB-19 it was 16.6 µM (inactive); in the assay on M14, 8.71 µM (inactive).
For `O=C1NN=CN2C(=O)CCC12` (stereo not given), the GI50 in the assay on CCRF-CEM, in the assay on UACC-257, in the assay with LOX IMVI, in the assay on SR, with IGROV-1 and in the assay with HCT-116 was > 100 µM (inactive) throughout. Besides, the GI50 in the assay with SW-620, in the assay with SK-MEL-5, in the assay with 786-0, in the assay on NCI-H460, in the assay on SNB-75 and in the assay on K562 was > 100 µM (inactive) in each case. Also, the GI50 in the assay on RXF 393, in the assay with MOLT-4, in the assay with SNB-19 and in the assay with M14 was > 100 µM (inactive) each time.
For `Cc1ccc(/N=C/c2ccc3c(c2)OCO3)cc1C`, the GI50 with CCRF-CEM, with LOX IMVI, with NCI-H226, in the assay with SR, in the assay with IGROV-1 and in the assay with OVCAR-5 was > 100 µM (inactive) each time. In addition, the GI50 with HCT-116, in the assay with SW-620, in the assay on SK-MEL-5, in the assay on 786-0, in the assay with NCI-H460 and in the assay on SNB-75 was > 100 µM (inactive) each time. Moreover, the GI50 with K562 is > 10 µM (inactive); in the assay on RXF 393, > 100 µM (inactive); in the assay with MOLT-4, > 100 µM (inactive); in the assay on SNB-19 it was > 100 µM (inactive); with M14 it was > 100 µM (inactive).
For `O=C(O)CC1CC=C[C@H]2c3cc4c(cc3C(=O)NC12)OCO4` (stereo not given in full), the GI50 was > 75 µM (inactive) in the assay on CCRF-CEM; > 75 µM (inactive) in the assay with UACC-257; > 75 µM (inactive) in the assay with LOX IMVI; 44.7 µM (inactive) in the assay with NCI-H226; > 75 µM (inactive) in the assay with SR; > 75 µM (inactive) with IGROV-1. Moreover, the GI50 in the assay on HCT-116, in the assay with SW-620, with 786-0, with NCI-H460, in the assay with SNB-75 and in the assay with K562 was > 75 µM (inactive) throughout. Further, the GI50 in the assay with RXF 393, in the assay with MOLT-4, in the assay on SNB-19 and with M14 was > 75 µM (inactive) in each case.
For the compound `Nc1nc(S)nc(C(=O)Nc2ccc(Cl)c(Cl)c2)c1-c1ccc(Cl)cc1`, the GI50 was > 100 µM (inactive) in the assay with CCRF-CEM; > 100 µM (inactive) with UACC-257; > 100 µM (inactive) in the assay on LOX IMVI; > 100 µM (inactive) in the assay on NCI-H226; 76.6 µM (inactive) in the assay with SR; > 100 µM (inactive) with IGROV-1. In addition, the GI50 with OVCAR-5 was > 100 µM (inactive); in the assay with HCT-116, 45.4 µM (inactive); in the assay with SW-620, > 100 µM (inactive); in the assay on SK-MEL-5, > 100 µM (inactive); in the assay with 786-0 it was > 100 µM (inactive); with NCI-H460, > 100 µM (inactive). Moreover, the GI50 is > 100 µM (inactive) in the assay on SNB-75; 90.8 µM (inactive) in the assay with K562; > 100 µM (inactive) with RXF 393; 14.7 µM (inactive) in the assay with MOLT-4; > 100 µM (inactive) in the assay on SNB-19; 87.1 µM (inactive) in the assay with M14.
As to `CC(=O)OCCc1cccnc1/C=N/O`, the GI50 with CCRF-CEM was > 100 µM (inactive); in the assay on UACC-257, > 100 µM (inactive); in the assay on LOX IMVI, > 100 µM (inactive); with NCI-H226, 77.6 µM (inactive); with SR, > 100 µM (inactive); in the assay with IGROV-1, > 100 µM (inactive). Moreover, the GI50 with OVCAR-5, in the assay with HCT-116, in the assay on SW-620, with SK-MEL-5, in the assay with 786-0 and with NCI-H460 was > 100 µM (inactive) throughout. In addition, the GI50 in the assay on SNB-75, in the assay on K562, with RXF 393, in the assay on MOLT-4, with SNB-19 and with M14 was > 100 µM (inactive) in each case.
On to `CC12CC(=O)OC(Cc3ccccc31)O2` (stereo not given), for which the GI50 in the assay on CCRF-CEM, with UACC-257, in the assay with LOX IMVI, with NCI-H226, in the assay with SR and in the assay on IGROV-1 was > 100 µM (inactive) throughout. The GI50 with HCT-116, in the assay with SW-620, in the assay with 786-0, with NCI-H460, with SNB-75 and with K562 was > 100 µM (inactive) in each case. In addition, the GI50 in the assay with RXF 393, in the assay on MOLT-4, with SNB-19 and with M14 was > 100 µM (inactive) in each case.
With `CCOc1ccc(/C=N\N2C(=O)c3ccccc3C2=O)cc1`, the GI50 in the assay on CCRF-CEM, in the assay with UACC-257, with LOX IMVI, with NCI-H226, in the assay with SR and with IGROV-1 was > 100 µM (inactive) each time. The GI50 with OVCAR-5, in the assay with HCT-116, in the assay with SW-620, in the assay with SK-MEL-5, with 786-0 and with NCI-H460 was > 100 µM (inactive) in each case. In addition, the GI50 in the assay with SNB-75, in the assay with K562, with RXF 393, in the assay on MOLT-4, with SNB-19 and with M14 was > 100 µM (inactive) in each case.
Regarding `COc1cc(Br)cc2cc(-c3cn4c(n3)sc3ccccc34)c(=O)oc12`, the GI50 is 20.4 µM (inactive) in the assay with CCRF-CEM; 38.5 µM (inactive) in the assay on UACC-257; 18.4 µM (inactive) with LOX IMVI; 21.6 µM (inactive) in the assay on SR; 14.7 µM (inactive) in the assay with IGROV-1; 39 µM (inactive) in the assay with OVCAR-5. The GI50 is 21.2 µM (inactive) in the assay on MDA-MB-231; 21.3 µM (inactive) with HCT-116; 20.8 µM (inactive) in the assay on SW-620; 28.4 µM (inactive) in the assay with SK-MEL-5; 25.1 µM (inactive) with 786-0; 33.7 µM (inactive) with NCI-H460. The GI50 was 13.6 µM (inactive) in the assay on K562, 20.9 µM (inactive) with MOLT-4, 32.7 µM (inactive) in the assay on SNB-19 and 24.4 µM (inactive) with M14.
In the case of `COC(=O)C1=C(C)C(=O)C2(CCCCCC2C(=O)OC)C1` (stereo not given), the GI50 in the assay on CCRF-CEM, in the assay with UACC-257, in the assay with NCI-H226, in the assay on SR, in the assay on IGROV-1 and with OVCAR-5 was > 100 µM (inactive) in each case. Further, the GI50 in the assay with HCT-116, in the assay on SW-620, in the assay on SK-MEL-5, in the assay with 786-0, with NCI-H460 and in the assay on SNB-75 was > 100 µM (inactive) each time. Moreover, the GI50 in the assay with K562, in the assay with RXF 393, with MOLT-4, in the assay with SNB-19 and in the assay with M14 was > 100 µM (inactive) in each case.
Consider `COc1cc(O)c(C(=O)/C=C/c2ccc(OC)c(OCc3ccccc3)c2)c(OC)c1`, for which the GI50 with CCRF-CEM is 3.92 µM (inactive); in the assay with UACC-257, > 100 µM (inactive); with LOX IMVI, 33.7 µM (inactive); in the assay with NCI-H226 it was > 100 µM (inactive); in the assay with SR it was 4.08 µM (inactive); in the assay on IGROV-1, > 100 µM (inactive). Besides, the GI50 is > 100 µM (inactive) in the assay with OVCAR-5; 4.55 µM (inactive) in the assay with HCT-116; 36.5 µM (inactive) in the assay on SW-620; > 100 µM (inactive) in the assay on SK-MEL-5; > 100 µM (inactive) in the assay on 786-0; > 100 µM (inactive) in the assay with NCI-H460. Further, the GI50 was 22.1 µM (inactive) with SNB-75; 5.93 µM (inactive) in the assay with K562; 5.21 µM (inactive) in the assay with RXF 393; 5.46 µM (inactive) in the assay with MOLT-4; > 100 µM (inactive) in the assay on SNB-19; > 100 µM (inactive) in the assay with M14.
In the case of `CCN1/C(=C/C(C)=C/c2sc3ccccc3[n+]2CC)Sc2ccccc21`, the GI50 is 0.0261 µM (active) with CCRF-CEM; 0.135 µM (active) in the assay with LOX IMVI; 0.0625 µM (active) with NCI-H226; 0.181 µM (active) in the assay on SR; 0.279 µM (active) in the assay with IGROV-1; 0.431 µM (active) in the assay with OVCAR-5. Besides, the GI50 in the assay with HCT-116 is 0.0485 µM (active); in the assay with SW-620 it was 0.122 µM (active); with SK-MEL-5, 0.0925 µM (active); in the assay on 786-0 it was 0.418 µM (active); with NCI-H460 it was 0.0621 µM (active); in the assay with SNB-75, 0.239 µM (active). Moreover, the GI50 is 0.034 µM (active) with K562; 0.273 µM (active) in the assay with RXF 393; 0.0637 µM (active) in the assay on MOLT-4; 0.0214 µM (active) with SNB-19; 0.212 µM (active) in the assay on M14.
